In patent publication US20250051275A1, “PYRROLE DERIVATIVE OR PHARMACEUTICALLY OR SITOLOGICALLY ACCEPTABLE SALTS THEREOF, AND COMPOSITION FOR PREVENTION, AMELIORATION OR TREATMENT OF GASTROINTESTINAL DISORDERS COMPRISING SAME AS ACTIVE INGREDIENT” (HANA PHARM CO., LTD., priority 2021, published 2025) one finds IC50 data, which are given here for 20 molecules.

SMILES strings stand for the structures. Read-outs that look alike come from different tables or passages of the source.

Assay [1] deals with human gastric cancer cells (AGS Cells). The assay is described as follows: MTS assay, inhibition of proliferation of human gastric cancer cells (AGS Cells). The assay is classed as cell-based. Particulars: 48 hours. How it is done:
To examine the effect of inhibiting the proliferation of the compounds indicated in the examples of the present invention on human gastric cancer cells (AGS Cells), MTS Assay experiments were in vitro performed. AGS cells were cultured in a 5% CO2 incubator at 37° C. by using RPMI 1640 medium containing 1% penicillin-streptomycin and 10% fetal bovine serum. The cells in culture were separated with using 0.25% Trypsin-0.02% EDTA every 3 to 4 days and subcultured.
For the experiment, the cultured cells were treated with 0.25% Trypsin-0.02% EDTA solution, the suspended cells were centrifuged at 1,200 rpm for 5 minutes, the supernatant was discarded, a culture medium was added thereto, and a cell suspension was made with the culture medium. Using a hemocytometer, 10,000 cells per well were dispensed into 96-well plates and cultured. After 24 hours, when the cells attached to the plate, the culture medium was discarded, and the cells were treated with new culture media prepared by concentration (test concentrations: 500 μm, 250 μm, 125 μm, 63 μm, 31 μm, 16 μm, 8 μm, 4 μm, and 2 μm) and cultured in a CO2 incubator for 48 hours. After treating with an MTS solution, the cells were incubated in a CO2 incubator for 1 hour, and the absorbance was measured at 490 nm by using a microplate reader device. The cell proliferation inhibition rate was expressed as IC50, which is 50% inhibition of cell proliferation, using GraphPad Prism 5.
In Table 2 below, the IC50 value is indicated as “+++” for 0 to 50 μM, “++” for 51 to 100 μM, and “+” for 101 to 400 μM.
(Tetrazolium dyes change colour on reduction, which living cells bring about.)

Assay [2] concerns the target proton pump (H+/K+-ATPase) (Sus scrofa (Pig), UniProt P19156). The assay is described as follows: Inhibitory activity on proton pump (H+/K+-ATPase) activity. The class given is biochemical. The following applies: porcine gastric mucosal microsomes, 5 mM KCl, pH 6.4. The method, then:
The compounds indicated in the above examples were tested for their inhibitory activity on proton pump (H+/K+-ATPase) activity as follows by applying the method disclosed in the literature. According to the methods of Nobuyuki Takahashi and Yukinori Take [J Pharmacol Exp Ther. 2018 February; 364(2):275-286], the gastric mucosal microsome fraction was isolated from the porcine stomach. The stomach isolated from the pig was washed first with tap water, only the fundus was cut, and then washed (a second time) with cold PBS. The gastric mucosa was separated by scraping, homogenized with 250 mM sucrose solution, and centrifuged at 20,000 g at 4° C. for 30 minutes. Only the supernatant was centrifuged at 115,000 g at 4° C. for 30 minutes, and the precipitate was suspended in 250 mM sucrose solution, added to cover with 7% Ficoll solution, and centrifuged at 135,000 g at 4° C. for 60 minutes. The microsome fraction formed at the interface was recovered and suspended in 250 mM sucrose solution, and centrifuged at 135,000 g, 4° C. for 60 minutes, and the precipitate was dissolved in 0.9% NaCl. The isolated gastric mucosal microsome fraction was quantified by using the Bicinchoninic Acid (BCA) kit (Thermo).
60 μl of enzyme reaction solution (a test compound at a given concentration, […] of gastric mucosal microsomes, 3 mM of MgSO4, 5 mM of KCl, 40 mM of Tris-HCl pH 6.4, and 0.5 mM of adenosine triphosphate) was added to each well of a 96-well plate and reacted at 37° C. for 60 minutes, and 30 μl of 10% SIDS was added to stop the enzyme reaction. 200 μl of detection solution (in which 10% L-ascorbic acid with pH 5.0 was mixed with 35 mM of ammonium molybdate tetrahydrate/15 mM of zinc acetate with pH 5.0 at the ratio of 4:1) was added and reacted at 37° C. for 30 minutes, and the absorbance value was measured at 750 nm by using a microplate reader (MULTISKAN GO, Thermo). The inhibition rate of proton pump activity was expressed as I050, which is 50% inhibition of enzyme activity, by using GraphPad Prism 5. In Table 1 below, an I050 value of 100 nM or less is indicated by +++, an I050 value of 101 to 200 nM is indicated by ++, and an I050 value of above 200 nM is indicated by +.

Setting [3] is: Homo sapiens, read-out: Proliferation inhibitory effect of gastric cancer cells (IC50).
Setting [4] is: Homo sapiens, read-out: Proliferation inhibitory effect of gastric cancer cells (IC50, μM), class symbol.
Where [5] appears, read: read-out: Proton pump inhibitory activity (IC50).
[6] abbreviates: read-out: Proton pump inhibitory activity (IC50, nM), class symbol.

proton pump (H+/K+-ATPase), sequence (P19156 2-1034): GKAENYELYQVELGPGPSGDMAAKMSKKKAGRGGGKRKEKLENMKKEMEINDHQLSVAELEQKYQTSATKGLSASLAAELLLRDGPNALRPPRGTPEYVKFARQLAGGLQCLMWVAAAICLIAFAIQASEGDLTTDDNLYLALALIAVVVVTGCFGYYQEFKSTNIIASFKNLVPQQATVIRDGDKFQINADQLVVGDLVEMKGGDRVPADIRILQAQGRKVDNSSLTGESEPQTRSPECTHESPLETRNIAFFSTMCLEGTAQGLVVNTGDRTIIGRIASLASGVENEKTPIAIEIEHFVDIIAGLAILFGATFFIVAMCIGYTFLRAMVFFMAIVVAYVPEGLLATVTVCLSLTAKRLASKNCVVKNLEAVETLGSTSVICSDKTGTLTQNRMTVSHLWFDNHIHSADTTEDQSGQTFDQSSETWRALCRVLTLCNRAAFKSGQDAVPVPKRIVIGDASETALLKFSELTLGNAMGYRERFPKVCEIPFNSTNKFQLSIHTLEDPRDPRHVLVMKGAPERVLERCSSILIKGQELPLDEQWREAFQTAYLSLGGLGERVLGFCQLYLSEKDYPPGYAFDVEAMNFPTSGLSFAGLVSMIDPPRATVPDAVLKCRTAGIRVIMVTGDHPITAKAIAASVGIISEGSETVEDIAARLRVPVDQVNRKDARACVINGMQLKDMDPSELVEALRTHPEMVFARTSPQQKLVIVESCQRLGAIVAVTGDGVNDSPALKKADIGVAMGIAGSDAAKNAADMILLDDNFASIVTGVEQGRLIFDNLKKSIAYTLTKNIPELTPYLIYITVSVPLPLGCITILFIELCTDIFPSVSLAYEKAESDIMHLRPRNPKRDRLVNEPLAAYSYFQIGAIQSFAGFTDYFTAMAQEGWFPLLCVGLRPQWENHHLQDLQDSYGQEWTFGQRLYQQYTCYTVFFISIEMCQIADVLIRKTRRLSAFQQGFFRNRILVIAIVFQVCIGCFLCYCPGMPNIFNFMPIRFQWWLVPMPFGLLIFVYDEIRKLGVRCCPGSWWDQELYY
proton pump (H+/K+-ATPase), sequence (P18434 whole entry partner): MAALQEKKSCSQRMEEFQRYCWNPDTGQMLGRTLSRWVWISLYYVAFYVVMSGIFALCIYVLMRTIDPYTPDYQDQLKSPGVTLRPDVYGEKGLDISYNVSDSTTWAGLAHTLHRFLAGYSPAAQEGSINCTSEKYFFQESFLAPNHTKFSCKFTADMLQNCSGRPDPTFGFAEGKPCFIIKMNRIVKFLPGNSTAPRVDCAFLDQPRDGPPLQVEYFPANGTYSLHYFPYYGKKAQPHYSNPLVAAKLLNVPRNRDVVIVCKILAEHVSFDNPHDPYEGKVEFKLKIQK

Turning to `COc1ccc2nc([S@@+]([O-])Cc3ncc(C)c(OC)c3C)[nH]c2c1` [Control Drug 2 (Esomeprazole), 6-methoxy-2-[(S)-(4-methoxy-3,5-dimethylpyridin-2-yl)methylsulfinyl]-1H-benzimidazole, reference compound], the IC50 was 194 µM in assay [1] (setting [3]) and 101 to 400 µM in assay [1] (setting [4]).
Turning to `N.N.[Cl][Pt][Cl]` [Control Drug 3 (Cisplatin), diamminedichloridoplatinum(II), reference compound], the IC50 in assay [1] (read-out: Proliferation inhibitory effect of gastric cancer cells (IC50)) was 19.2 µM; in assay [1] (read-out: Proliferation inhibitory effect of gastric cancer cells (IC50, μM), class symbol), under 50 µM.
Consider `[2H]C([2H])([2H])NCc1cc(-c2ccccc2F)n(S(=O)(=O)c2ccc(C)cc2)c1` [Example 2, N-((5-(2-fluorophenyl)-1-tosyl-1H-pyrrol-3-yl)methyl)methan-d3-amine], for which the IC50 is 68 nM in assay [2] (setting [5]), at most 100 nM in assay [2] (setting [6]), 17.5 µM in assay [1] (setting [3]) and under 50 µM in assay [1] (setting [4]).
Take `[2H]C([2H])([2H])NCc1cc(-c2ccccc2F)n(S(=O)(=O)c2ccc(OC)cc2)c1` [Example 3, N-((5-(2-fluorophenyl)-1-((4-methoxyphenyl)sulfonyl)-1H-pyrrol-3-yl)methyl)methan-d3-amine]: the IC50 in assay [2] (setting [5]) is 48 nM; in assay [2] (setting [6]) it was at most 100 nM; in assay [1] (setting [3]), 3.5 µM; in assay [1] (setting [4]), under 50 µM.
Turning to `[2H]C([2H])([2H])NCc1cc(-c2ccccc2F)n(S(=O)(=O)c2ccc(C#N)cc2)c1` [Example 4, 4-((2-(2-fluorophenyl)-4-(((methyl-d3)amino)methyl)-1H-pyrrol-1-yl)sulfonyl)benzonitrile], the IC50 is 90 nM in assay [2] (setting [5]), at most 100 nM in assay [2] (setting [6]), 32.7 µM in assay [1] (setting [3]) and under 50 µM in assay [1] (setting [4]).
`[2H]C([2H])([2H])NCc1cc(-c2ccccc2F)n(S(=O)(=O)c2ccc(Br)cc2)c1` [Example 5, N-((1-((4-bromophenyl)sulfonyl)-5-(2-fluorophenyl)-1H-pyrrol-3-yl)methyl)methan-d3-amine]: the IC50 in assay [2] (setting [5]) was 36 nM; in assay [2] (setting [6]), at most 100 nM.
As for `[2H]C([2H])([2H])NCc1cc(-c2ccccc2F)n(S(=O)(=O)c2ccc(Cl)cc2)c1` [Example 6, N-((1-((4-chlorophenyl)sulfonyl)-5-(2-fluorophenyl)-1H-pyrrol-3-yl)methyl)methan-d3-amine], the IC50 in assay [2] (setting [5]) is 26 nM; in assay [2] (setting [6]) it was at most 100 nM; in assay [1] (setting [3]) it was 21.7 µM; in assay [1] (setting [4]), under 50 µM.
In the case of `[2H]C([2H])([2H])NCc1cc(-c2ccccc2F)n(S(=O)(=O)c2ccc(OC(F)(F)F)cc2)c1` [Example 8, N-((5-(2-fluorophenyl)-1-((4-(trifluoromethoxy)phenyl)sulfonyl)-1H-pyrrol-3-yl)methyl)methan-d3-amine], the IC50 in assay [2] (setting [5]) is 51 nM; in assay [2] (setting [6]), at most 100 nM; in assay [1] (setting [3]) it was 12.2 µM; in assay [1] (setting [4]) it was under 50 µM.
As to `[2H]C([2H])([2H])NCc1cc(-c2cccc(F)c2)n(S(=O)(=O)c2ccc(Cl)cc2)c1` [Example 10, N-((1-((4-chlorophenyl)sulfonyl)-5-(3-fluorophenyl)-1H-pyrrol-3-yl)methyl)methan-d3-amine], the IC50 was 60 nM in assay [2] (setting [5]) and at most 100 nM in assay [2] (setting [6]).
Regarding `[2H]C([2H])([2H])NCc1cc(-c2cccc(F)c2)n(S(=O)(=O)c2ccc(OC)cc2)c1` [Example 11, N-((5-(3-fluorophenyl)-1-((4-methoxyphenyl)sulfonyl)-1H-pyrrol-3-yl)methyl)methan-d3-amine], the IC50 in assay [2] (setting [5]) was 76 nM; in assay [2] (setting [6]), at most 100 nM.
`[2H]C([2H])([2H])NCc1cc(-c2ccc(F)cc2F)n(S(=O)(=O)c2ccc(Br)cc2)c1` [Example 13, N-((1-((4-bromophenyl)sulfonyl)-5-(2,4-difluorophenyl)-1H-pyrrol-3-yl)methyl)methan-d3-amine]: the IC50 in assay [1] (setting [3]) is 14.2 µM; in assay [1] (setting [4]), under 50 µM.
`[2H]C([2H])([2H])NCc1cc(-c2ccc(F)cc2F)n(S(=O)(=O)c2ccc(C)cc2)c1` [Example 16, N-((5-(2,4-difluorophenyl)-1-tosyl-1H-pyrrol-3-yl)methyl)methane-d3-amine]: the IC50 in assay [2] (setting [5]) is 82 nM; in assay [2] (setting [6]) it was at most 100 nM.
Turning to `[2H]C([2H])([2H])NCc1cc(-c2ccc(F)cc2F)n(S(=O)(=O)c2ccc(OC)cc2)c1` [Example 17, N-((5-(2,4-difluorophenyl)-1-((4-methoxyphenyl)sulfonyl)-1H-pyrrol-3-yl)methyl)methan-d3-amine], the IC50 in assay [2] (setting [5]) is 84 nM; in assay [2] (setting [6]) it was at most 100 nM.
`[2H]C([2H])([2H])NCc1cc(-c2cccc(F)c2)n(S(=O)(=O)c2ccc(C#N)cc2)c1` [Example 22, 4-((2-(3-fluorophenyl)-4-(((methyl-d3)amino)methyl)-1H-pyrrol-1-yl)sulfonyl)benzonitrile]: the IC50 in assay [1] (setting [3]) was 22.6 µM; in assay [1] (setting [4]), under 50 µM.
Take `[2H]C([2H])([2H])NCc1cc(-c2ccc(F)cc2)n(S(=O)(=O)c2ccc(F)cc2)c1` [Example 24, N-((5-(4-fluorophenyl)-1-((4-fluorophenyl)sulfonyl)-1H-pyrrol-3-yl)methyl)methan-d3-amine]: the IC50 in assay [1] (setting [3]) is 41.5 µM; in assay [1] (setting [4]) it was under 50 µM.
On the same counts, the results for `[2H]C([2H])([2H])NCc1cc(-c2ccc(F)cc2)n(S(=O)(=O)c2ccc(Br)cc2)c1` [Example 25, N-((1-((4-bromophenyl)sulfonyl)-5-(4-fluorophenyl)-1H-pyrrol-3-yl)methyl)methan-d3-amine] are 24.8 µM and under 50 µM.
On the same counts, the results for `[2H]C([2H])([2H])NCc1cc(-c2ccc(F)cc2)n(S(=O)(=O)c2ccc(Cl)cc2)c1` [Example 26, N-((1-((4-chlorophenyl)sulfonyl)-5-(4-fluorophenyl)-1H-pyrrol-3-yl)methyl)methan-d3-amine] are 13.2 µM and under 50 µM.
For the molecule `[2H]C([2H])([2H])NCc1cn(S(=O)(=O)c2ccc(OC)nc2)c(-c2ccc(F)cc2F)c1OC` [Example 37, N-((5-(2,4-difluorophenyl)-4-methoxy-1-((6-methoxypyridin-3-yl)sulfonyl)-1H-pyrrol-3-yl)methyl) methane-d3-amine], the IC50 was 88 nM in assay [2] (setting [5]) and at most 100 nM in assay [2] (setting [6]).
On the same counts, the results for `[2H]C([2H])([2H])NCc1cn(S(=O)(=O)c2cccnc2)c(-c2c(F)cc(F)cc2F)c1OC` [Example 39, N-((4-methoxy-1-(pyridin-3-ylsulfonyl)-5-(2,4,6-trifluorophenyl)-1H-pyrrol-3-yl)methyl)methan-d3-amine] are 38 nM and at most 100 nM.
On the same counts, the results for `[2H]C([2H])([2H])NCc1cn(S(=O)(=O)c2ccc(OC)nc2)c(-c2c(F)cc(F)cc2F)c1OC` [Example 40, N-((4-methoxy-1-((6-methoxypyridin-3-yl)sulfonyl)-5-(2,4,6-trifluorophenyl)-1H-pyrrol-3-yl)methyl)methane-d3-amine] are 64 nM and at most 100 nM.
